Columns and labels:
ACVR1 = ACVR1 (Homo sapiens, UniProt Q04771); assay: Kinase profiling; type: binding; conditions: read-out: % Ctrl @ 1000 nM
AURKA = AURKA (Homo sapiens, UniProt O14965); assay: Kinase profiling; type: binding; conditions: read-out: % Ctrl @ 1000 nM
BLK = BLK (Homo sapiens, UniProt P51451); assay: Kinase profiling; type: binding; conditions: read-out: % Ctrl @ 1000 nM
CAMK1D = CAMK1D (Homo sapiens, UniProt Q8IU85); assay: Kinase profiling; type: binding; conditions: read-out: % Ctrl @ 1000 nM
CDKL1 = CDKL1 (Homo sapiens, UniProt Q00532); assay: Kinase profiling; type: binding; conditions: read-out: % Ctrl @ 1000 nM
CDKL2 = CDKL2 (Homo sapiens, UniProt Q92772); assay: Kinase profiling; type: binding; conditions: read-out: % Ctrl @ 1000 nM
EPHA6 = EPHA6 (Homo sapiens, UniProt Q9UF33); assay: Kinase profiling; type: binding; conditions: read-out: % Ctrl @ 1000 nM
FER = FER (Homo sapiens, UniProt P16591); assay: Kinase profiling; type: binding; conditions: read-out: % Ctrl @ 1000 nM
FLT3 (ITD, F691L) = assay: Kinase profiling; type: binding
FLT3 (K663Q) = FLT3 (K663Q) (Homo sapiens, UniProt P36888, K663Q); assay: Kinase profiling; type: binding; conditions: read-out: % Ctrl @ 1000 nM
FLT3-autoinhibited = FLT3-autoinhibited (Homo sapiens, UniProt P36888); assay: Kinase profiling; type: binding; conditions: read-out: % Ctrl @ 1000 nM
HUNK = HUNK (Homo sapiens, UniProt P57058); assay: Kinase profiling; type: binding; conditions: read-out: % Ctrl @ 1000 nM
HUNK, sequence (P57058 whole entry): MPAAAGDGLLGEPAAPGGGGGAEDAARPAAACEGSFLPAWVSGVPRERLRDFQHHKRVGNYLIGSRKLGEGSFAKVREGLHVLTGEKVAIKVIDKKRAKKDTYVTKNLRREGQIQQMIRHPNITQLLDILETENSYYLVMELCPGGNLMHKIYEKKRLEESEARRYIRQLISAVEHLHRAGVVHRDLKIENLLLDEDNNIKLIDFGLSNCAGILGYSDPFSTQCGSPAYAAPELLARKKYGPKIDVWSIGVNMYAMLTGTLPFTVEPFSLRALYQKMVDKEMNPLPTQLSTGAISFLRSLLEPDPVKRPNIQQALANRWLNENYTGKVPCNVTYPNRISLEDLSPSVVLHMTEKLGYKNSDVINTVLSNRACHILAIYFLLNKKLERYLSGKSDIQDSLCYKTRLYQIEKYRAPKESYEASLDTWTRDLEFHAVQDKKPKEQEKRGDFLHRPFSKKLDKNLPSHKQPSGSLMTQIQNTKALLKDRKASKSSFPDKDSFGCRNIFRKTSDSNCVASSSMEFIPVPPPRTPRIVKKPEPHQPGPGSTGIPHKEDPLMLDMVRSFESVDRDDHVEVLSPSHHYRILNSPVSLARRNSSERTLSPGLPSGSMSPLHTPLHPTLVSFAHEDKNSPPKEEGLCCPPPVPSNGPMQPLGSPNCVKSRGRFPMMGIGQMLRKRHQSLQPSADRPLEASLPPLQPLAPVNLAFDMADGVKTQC

IRAK1 = IRAK1 (Homo sapiens, UniProt P51617); assay: Kinase profiling; type: binding; conditions: read-out: % Ctrl @ 1000 nM
[1] = molecular target: JAK1 (JH2domain-pseudokinase) (Homo sapiens, UniProt P23458); assay: Kinase profiling; type: binding; conditions: read-out: % Ctrl @ 1000 nM
JAK1 (JH2domain-pseudokinase), sequence (P23458 583-855 limits assumed): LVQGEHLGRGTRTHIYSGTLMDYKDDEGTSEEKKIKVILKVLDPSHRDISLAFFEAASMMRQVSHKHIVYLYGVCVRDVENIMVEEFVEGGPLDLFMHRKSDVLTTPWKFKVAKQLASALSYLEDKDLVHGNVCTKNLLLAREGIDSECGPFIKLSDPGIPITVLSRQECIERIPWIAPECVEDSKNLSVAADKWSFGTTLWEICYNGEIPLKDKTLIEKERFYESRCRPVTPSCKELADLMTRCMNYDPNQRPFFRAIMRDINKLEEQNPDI

LIMK2 = LIMK2 (Homo sapiens, UniProt P53671); assay: Kinase profiling; type: binding; conditions: read-out: % Ctrl @ 1000 nM
LIMK2, sequence (P53671 whole entry): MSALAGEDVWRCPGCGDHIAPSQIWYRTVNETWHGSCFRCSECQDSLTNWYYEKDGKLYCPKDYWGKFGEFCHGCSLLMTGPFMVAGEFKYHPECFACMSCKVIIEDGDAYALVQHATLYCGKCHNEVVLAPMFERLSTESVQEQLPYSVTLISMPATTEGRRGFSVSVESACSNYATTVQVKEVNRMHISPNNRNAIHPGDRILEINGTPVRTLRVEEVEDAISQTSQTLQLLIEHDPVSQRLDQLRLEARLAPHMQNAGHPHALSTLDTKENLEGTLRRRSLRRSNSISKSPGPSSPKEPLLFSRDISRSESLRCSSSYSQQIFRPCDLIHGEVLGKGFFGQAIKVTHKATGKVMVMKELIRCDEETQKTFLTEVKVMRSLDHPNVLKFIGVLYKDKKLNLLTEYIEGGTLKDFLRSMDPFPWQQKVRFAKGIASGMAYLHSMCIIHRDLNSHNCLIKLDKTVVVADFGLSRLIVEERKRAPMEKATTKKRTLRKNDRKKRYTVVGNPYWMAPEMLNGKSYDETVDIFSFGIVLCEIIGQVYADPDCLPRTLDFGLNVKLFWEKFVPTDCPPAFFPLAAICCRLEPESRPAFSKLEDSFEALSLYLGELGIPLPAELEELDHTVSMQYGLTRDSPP

LRRK2 = LRRK2 (Homo sapiens, UniProt Q5S007); assay: Kinase profiling; type: binding; conditions: read-out: % Ctrl @ 1000 nM
LZK = LZK (Homo sapiens, UniProt O43283); assay: Kinase profiling; type: binding; conditions: read-out: % Ctrl @ 1000 nM
MKNK2 = molecular target: T1, MKNK2 (Homo sapiens, UniProt Q9HBH9); assay: Kinase profiling; type: binding; conditions: read-out: % Ctrl @ 1000 nM
T1 construct: T7 phage fusion (stated for most kinases of the panel only); made in house; host or cells: T7 phage in E. coli (BL21-derived) or HEK-293 cells
T1 sequence (Q9HBH9 whole entry, the tested form may be a part): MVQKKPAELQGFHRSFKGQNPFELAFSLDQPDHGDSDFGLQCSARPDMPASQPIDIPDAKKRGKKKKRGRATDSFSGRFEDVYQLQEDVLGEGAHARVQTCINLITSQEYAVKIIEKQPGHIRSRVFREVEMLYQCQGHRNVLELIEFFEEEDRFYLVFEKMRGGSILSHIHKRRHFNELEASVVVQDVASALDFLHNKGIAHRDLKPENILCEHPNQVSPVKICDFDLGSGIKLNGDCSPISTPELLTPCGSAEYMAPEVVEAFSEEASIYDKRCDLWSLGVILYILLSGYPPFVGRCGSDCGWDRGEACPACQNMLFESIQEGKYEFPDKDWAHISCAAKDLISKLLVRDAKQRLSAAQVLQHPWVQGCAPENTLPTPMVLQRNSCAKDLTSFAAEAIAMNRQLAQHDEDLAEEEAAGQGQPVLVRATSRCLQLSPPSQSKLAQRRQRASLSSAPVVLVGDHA

MLCK = molecular target: T2, MLCK (Homo sapiens, UniProt Q32MK0); assay: Kinase profiling; type: binding; conditions: read-out: % Ctrl @ 1000 nM
T2 construct: T7 phage fusion (stated for most kinases of the panel only); made in house; host or cells: T7 phage in E. coli (BL21-derived) or HEK-293 cells
T2 sequence (Q32MK0 whole entry, the tested form may be a part): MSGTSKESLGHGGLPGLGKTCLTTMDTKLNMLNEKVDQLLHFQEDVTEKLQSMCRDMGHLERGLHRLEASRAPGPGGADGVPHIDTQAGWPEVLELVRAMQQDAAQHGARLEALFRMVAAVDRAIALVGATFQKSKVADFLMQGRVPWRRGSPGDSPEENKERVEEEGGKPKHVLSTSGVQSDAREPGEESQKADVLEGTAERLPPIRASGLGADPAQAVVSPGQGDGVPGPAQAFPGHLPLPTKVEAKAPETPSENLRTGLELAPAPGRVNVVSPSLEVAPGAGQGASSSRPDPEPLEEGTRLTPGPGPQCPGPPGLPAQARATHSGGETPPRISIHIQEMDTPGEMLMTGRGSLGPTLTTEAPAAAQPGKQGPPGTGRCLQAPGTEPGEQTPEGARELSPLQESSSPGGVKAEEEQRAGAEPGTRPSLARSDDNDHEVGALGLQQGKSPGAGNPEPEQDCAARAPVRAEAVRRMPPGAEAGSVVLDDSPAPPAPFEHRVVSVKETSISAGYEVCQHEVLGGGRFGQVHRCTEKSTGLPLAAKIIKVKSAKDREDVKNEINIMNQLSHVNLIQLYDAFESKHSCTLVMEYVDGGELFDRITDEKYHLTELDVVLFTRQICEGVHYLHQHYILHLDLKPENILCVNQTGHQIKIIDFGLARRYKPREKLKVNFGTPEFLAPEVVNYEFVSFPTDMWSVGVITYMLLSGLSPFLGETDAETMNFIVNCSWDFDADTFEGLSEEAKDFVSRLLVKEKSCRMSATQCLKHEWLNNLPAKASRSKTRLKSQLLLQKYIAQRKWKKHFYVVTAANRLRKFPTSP

MRCKB = molecular target: T3, MRCKB (Homo sapiens, UniProt Q9Y5S2); assay: Kinase profiling; type: binding; conditions: read-out: % Ctrl @ 1000 nM
T3 construct: T7 phage fusion (stated for most kinases of the panel only); made in house; host or cells: T7 phage in E. coli (BL21-derived) or HEK-293 cells

NEK11 = molecular target: T4, NEK11 (Homo sapiens, UniProt Q8NG66); assay: Kinase profiling; type: binding; conditions: read-out: % Ctrl @ 1000 nM
T4 construct: T7 phage fusion (said for most assays); made in house
T4 sequence (Q8NG66 whole entry, the tested form may be a part): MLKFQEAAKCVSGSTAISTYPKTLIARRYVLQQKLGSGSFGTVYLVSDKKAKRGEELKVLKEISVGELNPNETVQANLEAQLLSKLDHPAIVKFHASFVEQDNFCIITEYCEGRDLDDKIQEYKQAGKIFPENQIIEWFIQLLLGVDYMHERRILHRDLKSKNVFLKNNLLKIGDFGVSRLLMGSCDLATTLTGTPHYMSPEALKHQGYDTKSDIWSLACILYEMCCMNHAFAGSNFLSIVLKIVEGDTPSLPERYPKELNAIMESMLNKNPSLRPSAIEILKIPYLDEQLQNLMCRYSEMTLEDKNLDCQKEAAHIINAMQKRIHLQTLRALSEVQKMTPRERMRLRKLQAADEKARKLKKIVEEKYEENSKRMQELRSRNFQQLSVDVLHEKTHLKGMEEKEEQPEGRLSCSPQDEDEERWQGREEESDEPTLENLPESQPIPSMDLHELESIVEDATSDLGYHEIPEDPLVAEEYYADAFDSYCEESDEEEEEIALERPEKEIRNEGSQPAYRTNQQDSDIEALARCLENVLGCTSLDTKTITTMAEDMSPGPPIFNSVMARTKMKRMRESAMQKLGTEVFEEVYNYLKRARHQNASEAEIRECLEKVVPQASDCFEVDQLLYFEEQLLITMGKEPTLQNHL

OSR1 = molecular target: T5, OSR1 (Homo sapiens, UniProt O95747); assay: Kinase profiling; type: binding; conditions: read-out: % Ctrl @ 1000 nM
T5 construct: T7 phage fusion (said for most assays); made in house

PAK2 = PAK2 (Homo sapiens, UniProt Q13177); assay: Kinase profiling; type: binding; conditions: read-out: % Ctrl @ 1000 nM
PIK3CD = PIK3CD (Homo sapiens, UniProt O00329); assay: Kinase profiling; type: binding; conditions: read-out: % Ctrl @ 1000 nM
PKN1 = PKN1 (Homo sapiens, UniProt Q16512); assay: Kinase profiling; type: binding; conditions: read-out: % Ctrl @ 1000 nM
RET = RET (Homo sapiens, UniProt P07949); assay: Kinase profiling; type: binding; conditions: read-out: % Ctrl @ 1000 nM
RIOK3 = RIOK3 (Homo sapiens, UniProt O14730); assay: Kinase profiling; type: binding; conditions: read-out: % Ctrl @ 1000 nM
SGK3 = SGK3 (Homo sapiens, UniProt Q96BR1); assay: Kinase profiling; type: binding; conditions: read-out: % Ctrl @ 1000 nM
SNRK = SNRK (Homo sapiens, UniProt Q9NRH2); assay: Kinase profiling; type: binding; conditions: read-out: % Ctrl @ 1000 nM
STK33 = STK33 (Homo sapiens, UniProt Q9BYT3); assay: Kinase profiling; type: binding; conditions: read-out: % Ctrl @ 1000 nM
STK33, sequence (Q9BYT3 whole entry): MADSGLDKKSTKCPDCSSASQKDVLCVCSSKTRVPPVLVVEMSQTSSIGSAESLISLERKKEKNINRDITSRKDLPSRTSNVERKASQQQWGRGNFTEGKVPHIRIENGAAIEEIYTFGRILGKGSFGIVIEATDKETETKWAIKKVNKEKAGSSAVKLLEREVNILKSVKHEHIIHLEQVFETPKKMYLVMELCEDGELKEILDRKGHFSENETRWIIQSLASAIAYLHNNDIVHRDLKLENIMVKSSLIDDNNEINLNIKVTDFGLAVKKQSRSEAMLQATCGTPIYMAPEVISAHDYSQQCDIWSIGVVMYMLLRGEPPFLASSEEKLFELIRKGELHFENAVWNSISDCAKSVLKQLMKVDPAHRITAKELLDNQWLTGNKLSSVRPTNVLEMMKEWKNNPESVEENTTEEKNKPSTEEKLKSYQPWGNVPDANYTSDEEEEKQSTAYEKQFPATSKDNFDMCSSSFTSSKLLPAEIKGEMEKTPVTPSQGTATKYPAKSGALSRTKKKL

STK36 = STK36 (Homo sapiens, UniProt Q9NRP7); assay: Kinase profiling; type: binding; conditions: read-out: % Ctrl @ 1000 nM
SYK = SYK (Homo sapiens, UniProt P43405); assay: Kinase profiling; type: binding; conditions: read-out: % Ctrl @ 1000 nM
TAOK3 = TAOK3 (Homo sapiens, UniProt Q9H2K8); assay: Kinase profiling; type: binding; conditions: read-out: % Ctrl @ 1000 nM
TAOK3, sequence (Q9H2K8 whole entry): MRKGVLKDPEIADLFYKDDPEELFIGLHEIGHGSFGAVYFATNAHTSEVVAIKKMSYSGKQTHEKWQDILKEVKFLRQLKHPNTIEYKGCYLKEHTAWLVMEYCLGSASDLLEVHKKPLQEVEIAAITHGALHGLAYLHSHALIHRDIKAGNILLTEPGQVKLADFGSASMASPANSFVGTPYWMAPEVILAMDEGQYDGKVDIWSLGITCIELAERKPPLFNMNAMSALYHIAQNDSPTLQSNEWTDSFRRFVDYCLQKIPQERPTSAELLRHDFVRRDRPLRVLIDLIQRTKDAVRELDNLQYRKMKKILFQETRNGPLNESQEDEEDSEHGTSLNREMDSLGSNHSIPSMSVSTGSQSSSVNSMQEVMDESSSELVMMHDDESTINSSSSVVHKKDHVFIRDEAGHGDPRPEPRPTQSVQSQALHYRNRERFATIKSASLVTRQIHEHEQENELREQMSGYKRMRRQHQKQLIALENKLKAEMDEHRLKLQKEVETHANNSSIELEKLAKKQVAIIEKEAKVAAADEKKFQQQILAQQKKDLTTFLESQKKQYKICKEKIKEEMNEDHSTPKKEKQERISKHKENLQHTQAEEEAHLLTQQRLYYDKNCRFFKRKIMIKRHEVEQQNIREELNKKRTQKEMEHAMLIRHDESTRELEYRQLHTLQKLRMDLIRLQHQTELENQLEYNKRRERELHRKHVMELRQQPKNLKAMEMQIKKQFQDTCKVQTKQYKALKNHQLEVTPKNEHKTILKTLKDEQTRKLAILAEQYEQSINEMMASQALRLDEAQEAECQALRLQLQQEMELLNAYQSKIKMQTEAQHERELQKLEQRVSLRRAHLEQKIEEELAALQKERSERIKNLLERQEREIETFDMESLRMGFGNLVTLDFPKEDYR

RAW264.7 cells = assay: Proliferation of RAW264.7 cells (CTG assay); type: cell-based; conditions: RAW264.7 (CSF-1 independent, negative control), 3 days
Procedure: Two syngeneic cell lines M-NFS-60 and RAW264.7 and engineered BaF3 hCSFIR cell line were starved and then tested with CBT-102 and other test articles for 3 days in the temperature of 37° C., 5% CO2 and 95% humidity. The cell viability was then detected using CTG assay. The software of GraphPad Prism was used to calculate IC50.
CSF-1 dependent mouse myeloid M-NFS-60 cells were employed as target cells while a CSF-1 independent cell line Raw 264.7 was used as a negative control. In addition to CBT-102, the study also included 3 CSF-1R inhibitors: GW2580, BLZ945 and Pexidartinib.

[2] = system: CD3 (T cell surface marker); assay: CD3 IHC test in MC-38 tumor; type: in vivo, mouse; conditions: MC-38 tumors; vs vehicle group
Procedure: MC38 tumor tissues were collected at the end of the in vivo efficacy trial. The tumor tissue was then embedded in paraffin. The expression of CD3/CD4/CD8/F4-80 were tested by immunohistochemistry stain.

## Cc1cc(Oc2cc(NC(=O)C3CC3)ncn2)ccc1NC(=O)Nc1ccc(Cl)c(C(F)(F)F)c1 [CBT-102]
ACVR1
  remaining activity at 1 µM: 95%
AURKA
  remaining activity at 1 µM: 86%
BLK
  remaining activity at 1 µM: 48%
CAMK1D
  remaining activity at 1 µM: 81%
CDKL1
  remaining activity at 1 µM: 65%
CDKL2
  remaining activity at 1 µM: 0.45%
EPHA6
  remaining activity at 1 µM: 2.7%
FER
  remaining activity at 1 µM: 73%
FLT3 (ITD, F691L)
  % Ctrl @ 1000 nM: 86%
FLT3 (K663Q)
  remaining activity at 1 µM: 3.9%
FLT3-autoinhibited
  remaining activity at 1 µM: 90%
HUNK
  remaining activity at 1 µM: 68%
IRAK1
  remaining activity at 1 µM: 75%
[1]
  remaining activity at 1 µM: 100%
LIMK2
  remaining activity at 1 µM: 92%
LRRK2
  remaining activity at 1 µM: 73%
LZK
  remaining activity at 1 µM: 97%
MKNK2
  remaining activity at 1 µM: 83%
MLCK
  remaining activity at 1 µM: 100%
MRCKB
  remaining activity at 1 µM: 100%
NEK11
  remaining activity at 1 µM: 100%
OSR1
  remaining activity at 1 µM: 96%
PAK2
  remaining activity at 1 µM: 94%
PIK3CD
  remaining activity at 1 µM: 100%
PKN1
  remaining activity at 1 µM: 100%
RET
  remaining activity at 1 µM: 0%
RIOK3
  remaining activity at 1 µM: 65%
SGK3
  remaining activity at 1 µM: 82%
SNRK
  remaining activity at 1 µM: 100%
STK33
  remaining activity at 1 µM: 63%
STK36
  remaining activity at 1 µM: 2.5%
SYK
  remaining activity at 1 µM: 100%
TAOK3
  remaining activity at 1 µM: 9.6%
RAW264.7 cells; Mus musculus, 72 h
  IC50: 22.9 µM
RAW264.7 cells
  Max inh.: 95.44%
[2]
  effect on T cell surface marker CD3 (IHC): no significant effect
